Literature values, collected in patent US20250356984A1 (priority 2022, published 2025).

Conditions: in vivo

## CC(C)c1cccc(C(C)C)c1O [propofol]
  time until target blood concentration is achieved: under a minute
